Measured values as given in ChEMBL document CHEMBL1124085, “Flavins as potential antimalarials. 1. 10-(Halophenyl)-3-methylflavins” (1988).
Several values for one entry are separate records, joined by “and”; a condition that tells them apart may be missing. Identical values can stand only once.

Experiments:
Assay type in all cases: functional
Mus musculus [1] = test: Oral antimalarial activity against Plasmodium vinckei in mice (Mus musculus) measured as % cured and increase in MST (days) at 50 mg/kg dose.
Mus musculus [2] = test: Parenteral antimalarial activity against Plasmodium vinckei in mice (Mus musculus) measured as increase in mean survival time at 10 mg/kg dose.
Mus musculus [3] = test: Oral antimalarial activity against Plasmodium vinckei vinckei in mice (Mus musculus) measured as increase in mean survival time at 75 mg/kg dose.
Mus musculus [4] = test: Parenteral antimalarial activity against Plasmodium vinckei vinckei in mice (Mus musculus) measured as increase in mean survival time at 25 mg/kg dose.
Mus musculus [5] = test: Parenteral antimalarial activity against Plasmodium vinckei in mice (Mus musculus) measured as % cured and increase in MST (days) at 15 mg/kg dose.
Mus musculus [6] = test: Parenteral antimalarial activity against Plasmodium vinckei vinckei in mice (Mus musculus) measured as increase in mean survival time at 30 mg/kg dose.
Mus musculus [7] = test: Parenteral antimalarial activity against Plasmodium vinckei vinckei in mice (Mus musculus) measured as % cured and increase in MST (days) at 20 mg/kg dose.
Mus musculus [8] = test: Oral antimalarial activity against Plasmodium vinckei vinckei in mice (Mus musculus) measured as % cured and increase in MST (days) at 100 mg/kg dose.
Mus musculus [9] = test: Oral antimalarial activity against Plasmodium vinckei vinckei in mice (Mus musculus) measured as increase in mean survival time at 50 mg/kg dose.
Mus musculus [10] = test: Oral antimalarial activity against Plasmodium vinckei in mice (Mus musculus) measured as % cured and increase in MST (days) at 25 mg/kg dose.
Mus musculus [11] = test: Parenteral antimalarial activity against Plasmodium vinckei in mice (Mus musculus) measured as increase in mean survival time at 15 mg/kg dose.
Mus musculus [12] = test: Parenteral antimalarial activity against Plasmodium vinckei vinckei in mice (Mus musculus) measured as % cured and increase in MST (days) at 30 mg/kg dose.
Mus musculus [13] = test: Parenteral antimalarial activity against Plasmodium vinckei vinckei in mice (Mus musculus) measured as % cured and increase in MST (days) at 25 mg/kg dose.
Mus musculus [14] = test: Parenteral antimalarial activity against Plasmodium vinckei vinckei in mice (Mus musculus) measured as % cured and increase in MST (days) at 10 mg/kg dose.
Mus musculus [15] = test: Oral antimalarial activity against Plasmodium vinckei in mice (Mus musculus) measured as increase in mean survival time at 150 mg/kg dose.
Mus musculus [16] = test: Oral antimalarial activity against Plasmodium vinckei in mice (Mus musculus) measured as increase in mean survival time at 25 mg/kg dose.
Mus musculus [17] = test: Oral antimalarial activity against Plasmodium vinckei vinckei in mice (Mus musculus) measured as increase in mean survival time at 100 mg/kg dose.
Mus musculus [18] = test: Oral antimalarial activity against Plasmodium vinckei vinckei in mice (Mus musculus) measured as % cured and increase in MST (days) at 150 mg/kg dose.
Mus musculus [19] = test: Parenteral antimalarial activity against Plasmodium vinckei vinckei in mice (Mus musculus) measured as increase in mean survival time at 20 mg/kg dose.
Mus musculus [20] = test: Oral antimalarial activity against Plasmodium vinckei in mice (Mus musculus) measured as % cured and increase in MST (days) at 75 mg/kg dose.
Mus musculus [21] = test: Oral antimalarial activity against Plasmodium vinckei in mice (Mus musculus) measured as increase in mean survival time at 25 mg/kg dose
Mus musculus [22] = test: Parenteral antimalarial activity against Plasmodium vinckei in mice (Mus musculus) measured as % cured and increase in MST (days) at 30 mg/kg dose.
Mus musculus [23] = test: Parenteral antimalarial activity against Plasmodium vinckei in mice (Mus musculus) measured as % cured and increase in MST (days) at 25 mg/kg dose.
Mus musculus [24] = test: Oral antimalarial activity against Plasmodium vinckei in mice (Mus musculus) measured as % cured and increase in MST (days) at 75 mg/kg dose
Mus musculus [25] = test: Parenteral antimalarial activity against Plasmodium vinckei in mice (Mus musculus) measured as increase in mean survival time at 10 mg/kg dose
Mus musculus [26] = test: Parenteral antimalarial activity against Plasmodium vinckei vinckei in mice (Mus musculus) measured as % cured and increase in MST (days) at 15 mg/kg dose
Mus musculus [27] = test: Oral antimalarial activity against Plasmodium vinckei in mice (Mus musculus) measured as increase in mean survival time at 100 mg/kg dose
Mus musculus [28] = test: Oral antimalarial activity against Plasmodium vinckei vinckei in mice (Mus musculus) measured as increase in mean survival time at 75 mg/kg dose
Mus musculus [29] = test: Oral antimalarial activity against Plasmodium vinckei vinckei in mice (Mus musculus) measured as % cured and increase in MST (days) at 50 mg/kg dose
Mus musculus [30] = test: Oral antimalarial activity against Plasmodium vinckei vinckei in mice (Mus musculus) measured as % cured and increase in MST (days) at 150 mg/kg dose
Mus musculus [31] = test: Oral antimalarial activity against Plasmodium vinckei in mice (Mus musculus) measured as increase in mean survival time at 150 mg/kg dose
Mus musculus [32] = test: Oral antimalarial activity against Plasmodium vinckei vinckei in mice (Mus musculus) measured as % cured and increase in MST (days) at 100 mg/kg dose
Mus musculus [33] = test: Parenteral antimalarial activity against Plasmodium vinckei in mice (Mus musculus) measured as % cured and increase in MST (days) at 10 mg/kg dose
Mus musculus [34] = test: Parenteral antimalarial activity against Plasmodium vinckei in mice (Mus musculus) measured as increase in mean survival time at 15 mg/kg dose
Mus musculus [35] = test: Parenteral antimalarial activity against Plasmodium vinckei in mice (Mus musculus) measured as % cured and increase in MST (days) at 20 mg/kg dose
Mus musculus [36] = test: Oral antimalarial activity against Plasmodium vinckei in mice (Mus musculus) measured as % cured and increase in MST (days) at 25 mg/kg dose
Mus musculus [37] = test: Oral antimalarial activity against Plasmodium vinckei vinckei in mice (Mus musculus) measured as increase in mean survival time at 50 mg/kg dose
Mus musculus [38] = test: Parenteral antimalarial activity against Plasmodium vinckei vinckei in mice (Mus musculus) measured as increase in mean survival time at 25 mg/kg dose
Mus musculus [39] = test: Parenteral antimalarial activity against Plasmodium vinckei in mice (Mus musculus) measured as increase in mean survival time at 20 mg/kg dose
Mus musculus [40] = test: Parenteral antimalarial activity against Plasmodium vinckei in mice (Mus musculus) measured as increase in mean survival time at 30 mg/kg dose
Mus musculus [41] = test: Parenteral antimalarial activity against Plasmodium vinckei in mice (Mus musculus) measured as % cured and increase in MST (days) at 25 mg/kg dose
Mus musculus [42] = test: Parenteral antimalarial activity against Plasmodium vinckei in mice (Mus musculus) measured as % cured and increase in MST (days) at 30 mg/kg dose

| Structure (SMILES) | Cured (Mus musculus [1]) [%] | MST (Mus musculus [2]) [days] | MST (Mus musculus [3]) [days] | MST (Mus musculus [4]) [days] | Cured (Mus musculus [5]) [%] | MST (Mus musculus [6]) [days] | Cured (Mus musculus [7]) [%] | Cured (Mus musculus [8]) [%] | MST (Mus musculus [9]) [days] | Cured (Mus musculus [10]) [%] | MST (Mus musculus [11]) [days] | Cured (Mus musculus [12]) [%] | Cured (Mus musculus [13]) [%] | Cured (Mus musculus [14]) [%] | MST (Mus musculus [15]) [days] | MST (Mus musculus [16]) [days] | MST (Mus musculus [17]) [days] | Cured (Mus musculus [18]) [%] | Cured (Mus musculus [20]) [%] | MST (Mus musculus [21]) [days] | other results |
| --- | --- | --- | --- | --- | --- | --- | --- | --- | --- | --- | --- | --- | --- | --- | --- | --- | --- | --- | --- | --- | --- |
| Cn1c(=O)nc2n(-c3cc(Cl)ccc3Cl)c3ccccc3nc-2c1=O | 0 | 0 | 0 | 0 | 0 | 0 | 0 | 0 | 0 | 0 | 0 | 0 | 0 | 0 | 0 | 0 | 0 | 0 | 0 |  | MST (Mus musculus [19]): 0 days |
| Cn1c(=O)nc2n(-c3cccc(F)c3)c3ccccc3nc-2c1=O | 40 | 0 | 2.5 | 2 | 0 | 2.2 | 40 | 80 | 0 | 40 | 0.2 | 0 | 0 | 0 | 0 |  | 0 | 40 | 20 | 0 | MST (Mus musculus [19]): 1.7 days |
| O=c1nc2n(-c3ccc(Cl)cc3)c3ccccc3nc-2c(=O)[nH]1 | 0 |  | 0 |  | 0 |  | 0 | 0 | 0 | 0 |  | 0 | 0 | 0 | 0 | 0 | 0 | 0 | 0 |  | MST (Mus musculus [22]): 0 days; MST (Mus musculus [5]): 0 days; MST (Mus musculus [7]): 0 days; MST (Mus musculus [23]): 0 days; MST (Mus musculus [14]): 0 days |
| Cn1c(=O)nc2n(-c3ccc(Cl)cc3)c3ccccc3nc-2c1=O |  |  |  |  |  |  |  |  |  |  |  |  |  |  |  |  |  |  |  | 2.4 | Cured (Mus musculus [24]): 85%; MST (Mus musculus [25]): 1.5 days; Cured (Mus musculus [26]): 95%; MST (Mus musculus [27]): 2.7 days; MST (Mus musculus [28]): 1 days; Cured (Mus musculus [29]): 75%; Cured (Mus musculus [30]): 90%; MST (Mus musculus [31]): 2.7 days; Cured (Mus musculus [32]): 90%; Cured (Mus musculus [33]): 60%; MST (Mus musculus [34]): 1 days; Cured (Mus musculus [35]; 20 mg/kg): 100% and 90%; Cured (Mus musculus [36]): 45%; MST (Mus musculus [37]): 1.4 days |
| Cn1c(=O)nc2n(-c3ccc(F)cc3)c3ccccc3nc-2c1=O |  |  |  |  |  |  |  |  |  |  |  |  |  |  |  |  |  |  |  | 0 | MST (Mus musculus [38]): 0.8 days; MST (Mus musculus [39]): 0.5 days; Cured (Mus musculus [24]): 0%; MST (Mus musculus [40]): 0.2 days; MST (Mus musculus [25]): 0 days; Cured (Mus musculus [26]): 0%; MST (Mus musculus [27]): 1 days; MST (Mus musculus [28]): 0.6 days; Cured (Mus musculus [41]): 0%; Cured (Mus musculus [29]): 0%; Cured (Mus musculus [30]): 20%; Cured (Mus musculus [42]): 0%; MST (Mus musculus [31]): 2.3 days; Cured (Mus musculus [32]): 0%; Cured (Mus musculus [33]): 0%; MST (Mus musculus [34]): 0.8 days; Cured (Mus musculus [35]): 20%; Cured (Mus musculus [36]): 0%; MST (Mus musculus [37]): 0.8 days |
